Target: T1, catalytic domain of human Bub1 (amino acids 704-1085) (Homo sapiens, UniProt O43683)
T1 construct: catalytic domain of human Bub1 (amino acids 704-1085); His6 (N); made in house; host or cells: Hi5 insect cells
Assay: Bub1 kinase assay (TR-FRET)
Type: biochemical
Settings: TR-FRET; ATP 10 μM, peptide substrate 1 μM; 60 min at 22° C.; average or median if tested more than once; read-out: Inhibition of Bub1 kinase IC50
In short: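 Eleven concentrations (0.1 nM–20 μM, duplicate) fitted by 4-parameter logistic for IC50. Read-out: EDTA-stopped TR-FRET (665/620 nm) detecting anti-phosphoserine binding to biotin-peptide (1 μM). Reaction used 10 μM ATP, 60 min at 22 °C, after 15 min compound preincubation with His-tagged human Bub1 704-1085.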

T1 sequence (O43683 704-1085): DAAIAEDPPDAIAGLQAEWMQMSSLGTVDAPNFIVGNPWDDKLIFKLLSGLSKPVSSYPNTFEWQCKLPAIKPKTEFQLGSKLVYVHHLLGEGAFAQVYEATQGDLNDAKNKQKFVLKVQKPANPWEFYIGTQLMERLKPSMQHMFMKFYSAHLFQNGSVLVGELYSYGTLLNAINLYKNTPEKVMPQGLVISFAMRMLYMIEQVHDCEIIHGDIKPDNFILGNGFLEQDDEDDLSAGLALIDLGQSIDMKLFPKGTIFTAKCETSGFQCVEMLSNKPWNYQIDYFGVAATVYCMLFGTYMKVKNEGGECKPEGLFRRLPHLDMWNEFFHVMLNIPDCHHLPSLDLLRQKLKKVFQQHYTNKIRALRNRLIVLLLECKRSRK

Q: With `CC(C)(C)CC(=O)N1CC(=O)c2c([nH]c(-c3ccncc3)c2Nc2ccccc2)C1` [Example 58, 6-(3,3-Dimethylbutanoyl)-3-(phenylamino)-2-(pyridin-4-yl)-1,5,6,7-tetrahydro-4H-pyrrolo[2,3-c]pyridin-4-one] as the compound, how does the IC50 read?
A: 8 nM

Q: Which IC50 does the source give for `O=C1CN(C(=O)c2cnc[nH]2)Cc2[nH]c(-c3ccncc3)c(Nc3ccccc3)c21` [Example 59, 6-(1H-Imidazol-5-ylcarbonyl)-3-(phenylamino)-2-(pyridin-4-yl)-1,5,6,7-tetrahydro-4H-pyrrolo[2,3-c]pyridin-4-one] here?
A: 10 nM

Q: Which IC50 does the source give for `Cn1cnc(C(=O)N2CC(=O)c3c([nH]c(-c4ccncc4)c3Nc3ccccc3)C2)c1` [Example 60, 6-[(1-Methyl-1H-imidazol-4-yl)carbonyl]-3-(phenylamino)-2-(pyridin-4-yl)-1,5,6,7-tetrahydro-4H-pyrrolo[2,3-c]pyridin-4-one] here?
A: 67 nM

Q: `O=C1CN(C(=O)c2ccccn2)Cc2[nH]c(-c3ccncc3)c(Nc3ccccc3)c21` [Example 61, 3-(phenylamino)-2-(pyridin-4-yl)-6-(pyridin-2-ylcarbonyl)-1,5,6,7-tetrahydro-4H-pyrrolo[2,3-c]pyridin-4-one] was tested. Which IC50 did it give?
A: 40 nM

Q: `O=C1CN(C(=O)c2cccnc2)Cc2[nH]c(-c3ccncc3)c(Nc3ccccc3)c21` [Example 62, 3-(phenylamino)-2-(pyridin-4-yl)-6-(pyridin-3-ylcarbonyl)-1,5,6,7-tetrahydro-4H-pyrrolo[2,3-c]pyridin-4-one] was tested. Which IC50 did it give?
A: 15 nM

Q: For `O=C1CN(C(=O)c2ccncc2)Cc2[nH]c(-c3ccncc3)c(Nc3ccccc3)c21` [Example 63, 3-(phenylamino)-2-(pyridin-4-yl)-6-(pyridin-4-ylcarbonyl)-1,5,6,7-tetrahydro-4H-pyrrolo[2,3-c]pyridin-4-one], which IC50 is on record?
A: 9 nM

Q: How did the IC50 turn out when `Cn1c2c(c(Nc3ccccc3)c1-c1ccncc1)C(=O)CN(S(C)(=O)=O)C2` [Example 64, 1-Methyl-6-(methylsulfonyl)-3-(phenylamino)-2-(pyridin-4-yl)-1,5,6,7-tetrahydro-4H-pyrrolo[2,3-c]pyridin-4-one] was run?
A: 1400 nM

Q: With `CCn1c2c(c(Nc3ccccc3)c1-c1ccncc1)C(=O)CN(S(C)(=O)=O)C2` [Example 65, 1-Ethyl-6-(methylsulfonyl)-3-(phenylamino)-2-(pyridin-4-yl)-1,5,6,7-tetrahydro-4H-pyrrolo[2,3-c]pyridin-4-one] as the compound, how does the IC50 read?
A: 1680 nM

Q: `O=C1CN(S(=O)(=O)C2CC2)Cc2[nH]c(-c3ccncc3)c(Nc3ccccc3)c21` [Example 66, 6-(Cyclopropylsulfonyl)-3-(phenylamino)-2-(pyridin-4-yl)-1,5,6,7-tetrahydro-4H-pyrrolo[2,3-c]pyridin-4-one] was tested. Which IC50 did it give?
A: 9 nM

Q: How did the IC50 turn out when `CC(C)S(=O)(=O)N1CC(=O)c2c([nH]c(-c3ccncc3)c2Nc2ccccc2)C1` [Example 67, 3-(phenylamino)-6-(propan-2-ylsulfonyl)-2-(pyridin-4-yl)-1,5,6,7-tetrahydro-4H-pyrrolo[2,3-c]pyridin-4-one] was run?
A: 6 nM

Q: Which IC50 does the source give for `O=C1CN(S(=O)(=O)C(F)F)Cc2[nH]c(-c3ccncc3)c(Nc3ccccc3)c21` [Example 68, 6-[(Difluoromethyl)sulfonyl]-3-(phenylamino)-2-(pyridin-4-yl)-1,5,6,7-tetrahydro-4H-pyrrolo[2,3-c]pyridin-4-one] here?
A: 5 nM

Q: How did the IC50 turn out when `O=C1CN(S(=O)(=O)CCC(F)(F)F)Cc2[nH]c(-c3ccncc3)c(Nc3ccccc3)c21` [Example 69, 3-(phenylamino)-2-(pyridin-4-yl)-6-[(3,3,3-trifluoropropyl)sulfonyl]-1,5,6,7-tetrahydro-4H-pyrrolo[2,3-c]pyridin-4-one] was run?
A: 4 nM

Q: With `O=C1CN(S(=O)(=O)C2CCOCC2)Cc2[nH]c(-c3ccncc3)c(Nc3ccccc3)c21` [Example 70, 3-(phenylamino)-2-(pyridin-4-yl)-6-(tetrahydro-2H-pyran-4-ylsulfonyl)-1,5,6,7-tetrahydro-4H-pyrrolo[2,3-c]pyridin-4-one] as the compound, how does the IC50 read?
A: 7 nM

Q: Which IC50 does the source give for `O=C1CN(S(=O)(=O)CC2CCOCC2)Cc2[nH]c(-c3ccncc3)c(Nc3ccccc3)c21` [Example 71, 3-(phenylamino)-2-(pyridin-4-yl)-6-[(tetrahydro-2H-pyran-4-ylmethyl)sulfonyl]-1,5,6,7-tetrahydro-4H-pyrrolo[2,3-c]pyridin-4-one] here?
A: 8 nM

Q: With `O=C1CN(S(=O)(=O)c2cnc[nH]2)Cc2[nH]c(-c3ccncc3)c(Nc3ccccc3)c21` [Example 72, 6-(1H-Imidazol-5-ylsulfonyl)-3-(phenylamino)-2-(pyridin-4-yl)-1,5,6,7-tetrahydro-4H-pyrrolo[2,3-c]pyridin-4-one] as the compound, how does the IC50 read?
A: 7 nM

Q: How did the IC50 turn out when `Cn1cnc(S(=O)(=O)N2CC(=O)c3c([nH]c(-c4ccncc4)c3Nc3ccccc3)C2)c1` [Example 73, 6-[(1-Methyl-1H-imidazol-4-yl)sulfonyl]-3-(phenylamino)-2-(pyridin-4-yl)-1,5,6,7-tetrahydro-4H-pyrrolo[2,3-c]pyridin-4-one] was run?
A: 8 nM

Q: Which IC50 does the source give for `O=C1CN(S(=O)(=O)c2ccccn2)Cc2[nH]c(-c3ccncc3)c(Nc3ccccc3)c21` [Example 74, 3-(phenylamino)-2-(pyridin-4-yl)-6-(pyridin-2-ylsulfonyl)-1,5,6,7-tetrahydro-4H-pyrrolo[2,3-c]pyridin-4-one] here?
A: 6 nM

Q: For `O=C1CN(S(=O)(=O)c2cccnc2)Cc2[nH]c(-c3ccncc3)c(Nc3ccccc3)c21` [Example 75, 3-(phenylamino)-2-(pyridin-4-yl)-6-(pyridin-3-ylsulfonyl)-1,5,6,7-tetrahydro-4H-pyrrolo[2,3-c]pyridin-4-one], which IC50 is on record?
A: 6 nM

Q: With `CCOC(=O)N1CC(=O)c2c([nH]c(-c3ccncc3)c2Nc2ccccc2)C1` [Example 76, Ethyl 4-oxo-3-(phenylamino)-2-(pyridin-4-yl)-1,4,5,7-tetrahydro-6H-pyrrolo[2,3-c]pyridine-6-carboxylate] as the compound, how does the IC50 read?
A: 7 nM

Q: For `CC(C)OC(=O)N1CC(=O)c2c([nH]c(-c3ccncc3)c2Nc2ccccc2)C1` [Example 77, Propan-2-yl 4-oxo-3-(phenylamino)-2-(pyridin-4-yl)-1,4,5,7-tetrahydro-6H-pyrrolo[2,3-c]pyridine-6-carboxylate], which IC50 is on record?
A: 11 nM

Q: For `CC(C)(C)COC(=O)N1CC(=O)c2c([nH]c(-c3ccncc3)c2Nc2ccccc2)C1` [Example 78, 2,2-Dimethylpropyl 4-oxo-3-(phenylamino)-2-(pyridin-4-yl)-1,4,5,7-tetrahydro-6H-pyrrolo[2,3-c]pyridine-6-carboxylate], which IC50 is on record?
A: 73 nM

Q: `O=C1CN(C(=O)OCCF)Cc2[nH]c(-c3ccncc3)c(Nc3ccccc3)c21` [Example 79, 2-Fluoroethyl 4-oxo-3-(phenylamino)-2-(pyridin-4-yl)-1,4,5,7-tetrahydro-6H-pyrrolo[2,3-c]pyridine-6-carboxylate] was tested. Which IC50 did it give?
A: 8 nM

Q: Which IC50 does the source give for `COCCOC(=O)N1CC(=O)c2c([nH]c(-c3ccncc3)c2Nc2ccccc2)C1` [Example 80, 2-Methoxyethyl 4-oxo-3-(phenylamino)-2-(pyridin-4-yl)-1,4,5,7-tetrahydro-6H-pyrrolo[2,3-c]pyridine-6-carboxylate] here?
A: 11 nM

Q: Which IC50 does the source give for `CNC(=O)N1CC(=O)c2c([nH]c(-c3ccncc3)c2Nc2ccccc2)C1` [Example 81, N-Methyl-4-oxo-3-(phenylamino)-2-(pyridin-4-yl)-1,4,5,7-tetrahydro-6H-pyrrolo[2,3-c]pyridine-6-carboxamide] here?
A: 4 nM

Q: Which IC50 does the source give for `CN(C)C(=O)N1CC(=O)c2c([nH]c(-c3ccncc3)c2Nc2ccccc2)C1` [Example 82] here?
A: 4 nM

Q: Which IC50 does the source give for `O=C1CN(C(=O)NCC(F)F)Cc2[nH]c(-c3ccncc3)c(Nc3ccccc3)c21` [Example 83, N-(2,2-Difluoroethyl)-4-oxo-3-(phenylamino)-2-(pyridin-4-yl)-1,4,5,7-tetrahydro-6H-pyrrolo[2,3-c]pyridine-6-carboxamide] here?
A: 12 nM

Q: For `O=C1CN(C(=O)NC2CC2)Cc2[nH]c(-c3ccncc3)c(Nc3ccccc3)c21` [Example 84, N-Cyclopropyl-4-oxo-3-(phenylamino)-2-(pyridin-4-yl)-1,4,5,7-tetrahydro-6H-pyrrolo[2,3-c]pyridine-6-carboxamide], which IC50 is on record?
A: 9 nM

Q: Which IC50 does the source give for `CC(C)(C)NC(=O)N1CC(=O)c2c([nH]c(-c3ccncc3)c2Nc2ccccc2)C1` [Example 85, N-tert-Butyl-4-oxo-3-(phenylamino)-2-(pyridin-4-yl)-1,4,5,7-tetrahydro-6H-pyrrolo[2,3-c]pyridine-6-carboxamide] here?
A: 13 nM

Q: For `COCCNC(=O)N1CC(=O)c2c([nH]c(-c3ccncc3)c2Nc2ccccc2)C1` [Example 86, N-(2-Methoxyethyl)-4-oxo-3-(phenylamino)-2-(pyridin-4-yl)-1,4,5,7-tetrahydro-6H-pyrrolo[2,3-c]pyridine-6-carboxamide], which IC50 is on record?
A: 11 nM

Q: Which IC50 does the source give for `CSCCNC(=O)N1CC(=O)c2c([nH]c(-c3ccncc3)c2Nc2ccccc2)C1` [Example 87, N-[2-(Methylsulfanyl)ethyl]4-oxo-3-(phenylamino)-2-(pyridin-4-yl)-1,4,5,7-tetrahydro-6H-pyrrolo[2,3-c]pyridine-6-carboxamide] here?
A: 11 nM

Q: How did the IC50 turn out when `CS(=O)(=O)CCNC(=O)N1CC(=O)c2c([nH]c(-c3ccncc3)c2Nc2ccccc2)C1` [Example 89, N-[2-(Methylsulfonyl)ethyl]-4-oxo-3-(phenylamino)-2-(pyridin-4-yl)-1,4,5,7-tetrahydro-6H-pyrrolo[2,3-c]pyridine-6-carboxamide] was run?
A: 31 nM

Q: For `COCCOCCNC(=O)N1CC(=O)c2c([nH]c(-c3ccncc3)c2Nc2ccccc2)C1` [Example 90, N-[2-(2-Methoxyethoxy)ethyl]-4-oxo-3-(phenylamino)-2-(pyridin-4-yl)-1,4,5,7-tetrahydro-6H-pyrrolo[2,3-c]pyridine-6-carboxamide], which IC50 is on record?
A: 21 nM

Q: Which IC50 does the source give for `O=C1CN(C(=O)N2CCNC2=O)Cc2[nH]c(-c3ccncc3)c(Nc3ccccc3)c21` [Example 91, 6-[(2-Oxoimidazolidin-1-yl)carbonyl]-3-(phenylamino)-2-(pyridin-4-yl)-1,5,6,7-tetrahydro-4H-pyrrolo[2,3-c]pyridin-4-one] here?
A: 14 nM
